# According to patent US20130244929A1 (priority 2010, published 2013):
# Legend:
# SpsB = biological target: T1, SpsB (Staphylococcus aureus, UniProt P0A070); assay: Inhibition of SpsB enzyme activity (fluorescence-based assay, bacterial membrane fraction); type: biochemical
# T1 construct: using a bacterial membrane fraction as a source of SpsB; from tissue
# T1 sequence (P0A070 1-191): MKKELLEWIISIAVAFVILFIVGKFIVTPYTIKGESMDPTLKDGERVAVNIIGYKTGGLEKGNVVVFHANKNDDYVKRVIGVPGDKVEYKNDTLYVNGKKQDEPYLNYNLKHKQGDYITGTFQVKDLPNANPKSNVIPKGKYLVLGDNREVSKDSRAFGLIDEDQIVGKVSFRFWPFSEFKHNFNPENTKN
# Procedure, shortened: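 Membrane fraction from bacteria supplied SpsB (0.6 mg/mL final protein), added last to start reactions with 20 μM lipopeptide substrate decanoyl-K(DABCYL)-TPTAKA↓ASKKD-D(EDANS)-NH2 (Km≈5 μM). Cleavage was followed as rising fluorescence, excitation 340/emission 460 nm.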
# [1] = tested on: MB 5393 (COL), a methicillin-resistant S. aureus strain; assay: Determination of minimum and synergistic inhibitory concentration; type: cell-based; conditions: MRSA COL, 22 hours
# Procedure, shortened: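 Broth microdilution: two-fold compound dilutions (final 64 to 0.0313 μg/mL) tested with and without subinhibitory imipenem (4 μg/mL) against MRSA COL at ~5×10^5 CFU/mL, 37°C, 22-24 hr stationary. MIC is lowest concentration preventing visible growth without imipenem; SIC same with imipenem.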
# MRSA strain COL = assay: Checkerboard studies with imipenem; type: cell-based, Staphylococcus aureus; conditions: combined with Imipenem, FIG. 1
# Description: FIG. 1: An SpsB inhibitor and Imipenem synergize to inhibit bacterial growth in vitro. The MIC of SpsB inhibitor on the MRSA strain COL was assessed by varying the concentration of the compound (0.016-16 μg/ml) in the absence and presence of various concentrations of Imipenem (0.5-32 μg/ml) and FIC values were generated for both compounds.
# The checkerboard method is the technique most frequently used to assess antimicrobial combinations in vitro. See Antibiotics in Laboratory Medicine, Victor Lorian ed., 2005). The checkerboard comprises a two-dimensional dilution scheme: columns in which each well contains the same amount of Drug A being two-fold diluted along the x-axis, and rows in which each well contains the same amount of Drug B being two-fold diluted on the Y-axis. The result is that each well contains a unique combination of the two drugs being tested. Also tested is the antimicrobial activity of each agent singly.
# Imipenem was two-fold serially diluted along the Y-axis of 96-well U-bottom microtiter dishes (Fisher Scientific) in microbiological growth media (either brain heart infusion broth or cation-adjusted Mueller-Hinton broth +2% NaCl). […]
# In this representation, data are expressed as fractional inhibitory concentrations (FIC), defined as the ratio between the MIC of one compound in the presence of the other, over its MIC alone. […]
# [2] = tested on: Staphylococcus aureus (strain B, MRSA COL); assay: Disseminated MRSA infection mouse model; type: in vivo, mice BALB/c
# Description: (§1) Female mice BALB/c mice (20-25 g) were rendered neutropenic via intraperitoneal injection of cyclophosphamide (Mead Johnson Pharmaceuticals) on Day −4 (250 mg/kg, disseminated) or Days −4/−1 (150/100 mg/kg, deep thigh) prior to experimental infection. Neutropenic mice were infected on Day 0 via intraperitoneal (disseminated) or intramuscular (deep thigh) injection of 0.1 ml containing ˜1-5×10^4 CFU Staphylococcus aureus (strain B, MRSA COL). Linezolid (Zyvox IV solution, Bell Medical) was employed as an assay control. Fifteen minutes post infection, increasing doses of Example 3 (20, 40 and 80 mg/kg) or vehicle were administered subcutaneously (SC) TID with or without Imipenem/Cilastatin (6/50 mg/kg SC TID, disseminated; 10/50 mg/kg SC TID, deep thigh). Twenty four hours post dosing, mice were euthanized and infected kidneys (disseminated) or thighs (deep thigh) were aseptically removed, placed in 4 ml sterile phosphate buffered saline (Fisher Scientific), and homogenized using a Polytron (Brinkmann Instruments). Homogenates were serially 100-fold diluted in 9.9 ml sterile saline and plated on Mannitol Salt Agar plates. Plates were incubated at 35° C. for 48 hours and colony forming units (CFU) of bacteria remaining per thigh were determined.
# [3] = tested on: Staphylococcus aureus (strain B, MRSA COL); assay: Deep thigh MRSA infection mouse model; type: in vivo, mice BALB/c
# Description: as §1
smiles,measurement,setting,value
"CCCc1ccc(-c2ccc(C(=O)NCCC(=O)N[C@@H](CCCCN)C(=O)N(C)[C@@H]3C(=O)N[C@@H](C)C(=O)N[C@H](C(=O)O)Cc4ccc(O)c(c4)-c4cc3ccc4O)cc2)cc1.O=C(O)C(F)(F)F [EXAMPLE 3, (5S)-6-[[(7S,10S,13S)-13-carboxy-3,18-dihydroxy-10-methyl-8,11-dioxo-9,12-diazatricyclo[13.3.1.1^2,6]icosa-1(19),2(20),3,5,15,17-hexaen-7-yl](methyl)amino]-6-oxo-5-[(3-{[(4′-propylbiphenyl-4-yl)carbonyl]amino}propanoyl)amino]hexan-1-aminium trifluoroacetate]",IC50,SpsB,< 10 nM
same,SIC,[1]; presence of imipenem (4 μg/mL),H (H: SIC 0.062-1)
same,MIC,"[1]; Staphylococcus aureus, absence of imipenem, read-out: MIC",< 1 µg/mL
same,synergy in isobologram (FIC) of bacterial growth,MRSA strain COL,synergistic effect
same,effect on MRSA COL bacterial burden,"[2]; Example 3 alone, 20, 40 and 80 mg/kg SC TID, kidneys, relative to vehicle, FIG. 2A",negligible anti-bacterial effects
same,reduction in bacterial burden,"[2]; co-administered with Imipenem/Cilastatin 6/50 mg/kg SC TID, disseminated",2-3 log
same,effect on MRSA COL bacterial burden,"[3]; Example 3 alone, 20, 40 and 80 mg/kg SC TID, thighs, relative to vehicle, FIG. 2B",negligible anti-bacterial effects
same,reduction in bacterial burden,"[3]; co-administered with Imipenem/Cilastatin 10/50 mg/kg SC TID, deep thigh",2-3 log
